{
  "source": "paper PMC4301837",
  "about": "“Aldosterone synthase inhibition: cardiorenal protection in animal disease models and translation of hormonal effects to human subjects” (Journal of Translational Medicine, 2014)",
  "key": {"[1]": {"tested_on": "ACTH-stimulated aldosterone, cortisol and precursors", "assay": "Human ACTH (cortisol) stimulation test, multiple-dose phase", "assay_type": "in vivo"}, "[2]": {"tested_on": "dTG rats overexpressing human renin and angiotensinogen", "assay": "Survival study in young dTG rats", "assay_type": "in vivo, rat"}, "healthy male volunteers [3]": {"tested_on": "healthy male volunteers", "assay": "Human safety and tolerability", "assay_type": "in vivo", "conditions": "single or multiple doses"}, "[4]": {"tested_on": "dTG rats overexpressing human renin and angiotensinogen", "assay_type": "in vivo"}, "healthy male volunteers [5]": {"tested_on": "healthy male volunteers", "assay": "Human pharmacodynamics, multiple-dose phase"}, "[6]": {"tested_on": "ACTH-stimulated aldosterone and corticosterone synthesis", "parameters": "method as in PMID 20354176", "conditions": "in vivo rat ACTH stimulation model; previous study; cited from earlier work"}, "human CYP11B2": {"tested_on": "human CYP11B2", "parameters": "method as in PMID 24899257", "conditions": "cited from earlier work"}, "[7]": {"conditions": "dogs, ref D. Rigel, personal communication, cited from earlier work"}, "[8]": {"tested_on": "Ang II-stimulated aldosterone release", "parameters": "method as in D. Rigel, personal communication", "conditions": "dogs; ref D. Rigel, personal communication; read-out: EC50, inhibition of Ang II-stimulated aldosterone release; cited from earlier work"}, "[9]": {"tested_on": "dTG rats with pre-established cardiorenal disease", "assay": "Survival study in older, enalapril-pre-treated dTG rats with established cardiorenal disease", "assay_type": "in vivo, rat", "conditions": "male dTG rats, 10 mg/kg/day (40 mg/L in drinking water) from 3 to 8 weeks of age"}, "[10]": {"conditions": "dTG rats, LCI699 3–100 mg/kg/day, eplerenone 30 mg/kg/day"}, "[11]": {"conditions": "eplerenone 100 mg once daily, ANCOVA mean"}},
  "note": "Marks after values point to notes of the source that are not given here.",
  "data": [
    {"molecule": "COC(=O)[C@@H]1CC2=CC(=O)CC[C@]2(C)[C@@]23O[C@@H]2C[C@@]2(C)[C@@H](CC[C@@]24CCC(=O)O4)[C@H]13", "note": "[eplerenone, reference compound]", "values": [
      {"measurement": "effect on ACTH-stimulated 11-DOC levels", "setting": "[1]; LCI699 0.5 mg, eplerenone 100 mg", "result": "no significant effect"},
      {"measurement": "effect on cortisol precursors (ACTH-stimulated)", "setting": "[1]; eplerenone 100 mg and lower doses of LCI699 (0.5, 1 mg), Day 6 or Day 13", "result": "no significant effect"},
      {"measurement": "increase in ACTH-stimulated peak aldosterone levels", "setting": "[1]; eplerenone 100 mg, Day 6", "result": 63, "unit": "%"},
      {"measurement": "increase in pre-ACTH aldosterone levels 2 h post-dose vs Day −2", "setting": "[1]; eplerenone 100 mg, Day 6", "result": 29, "unit": "%"},
      {"measurement": "maximum effective dose for prolongation of survival", "setting": "[2]; young dTG rats", "result": 30, "unit": "mg/kg"},
      {"measurement": "doses at which survival was significantly prolonged", "setting": "[2]; young dTG rats without established cardiorenal disease, P < 0.01", "result": "> 10", "unit": "mg/kg/day"},
      {"measurement": "maximum median survival time", "setting": "[2]; young dTG rats, dose–median survival curves", "result": 8.4, "unit": "weeks"},
      {"measurement": "changes in supine systolic or diastolic blood pressure or heart rate compared with placebo", "setting": "healthy male volunteers [3]", "result": "no consistent changes"},
      {"measurement": "effect on BUN levels", "setting": "[4]; 30 mg/kg", "result": "no significant effect"},
      {"measurement": "effect on LV fractional shortening", "setting": "[4]; 30 mg/kg", "result": "no significant effect"},
      {"measurement": "effect on LV isovolumic relaxation time to RR (IVRT/RR) ratio", "setting": "[4]; 30 mg/kg", "result": "no significant effect"},
      {"measurement": "effect on urine output", "setting": "[4]; 30 mg/kg", "result": "no significant effect"},
      {"measurement": "effect on plasma aldosterone concentration", "setting": "[4]; dTG rats treated 3 to 7 weeks of age, LCI699 3–100 mg/kg/day in drinking water, eplerenone 30 mg/kg/day in chow", "result": "had no effect"},
      {"measurement": "effect on myocardial cell size", "setting": "[4]; dTG rats, LCI699 3–100 mg/kg/day, eplerenone 30 mg/kg", "result": "reduced but did not normalize"},
      {"measurement": "effect on mean arterial pressure", "setting": "[4]; [10]", "result": "neither LCI699 nor eplerenone normalized arterial pressure"},
      {"measurement": "effect on serum potassium", "setting": "[4]; [10]", "result": "had no effect"},
      {"measurement": "effect on urinary albumin excretion", "setting": "[4]; [10]", "result": "slightly increased"},
      {"measurement": "effect on urinary aldosterone excretion", "setting": "[4]; [10]", "result": "significantly increased"},
      {"measurement": "effect on LV weight", "setting": "[4]; dTG rats, LCI699 3–100 mg/kg/day, eplerenone 30 mg/kg, data not shown", "result": "had no effect"},
      {"measurement": "Plasma potassium, Δ Day2 vs baseline (Day −1)", "setting": "healthy male volunteers [5]; [11]", "result": "+0.08 mEq/L"},
      {"measurement": "Plasma potassium, Δ Day7 vs baseline (Day −1)", "setting": "healthy male volunteers [5]; [11]", "result": "−0.02", "unit": "mEq/L"},
      {"measurement": "Plasma potassium, Δ Day14 vs Day 7", "setting": "healthy male volunteers [5]; [11]", "result": "−0.09", "unit": "mEq/L"},
      {"measurement": "Plasma sodium, Δ Day2 vs baseline (Day −1)", "setting": "healthy male volunteers [5]; [11]", "result": "−0.64", "unit": "mEq/L"},
      {"measurement": "Plasma sodium, Δ Day7 vs baseline (Day −1)", "setting": "healthy male volunteers [5]; [11]", "result": "+0.31 mEq/L"},
      {"measurement": "Plasma sodium, Δ Day14 vs Day 7", "setting": "healthy male volunteers [5]; [11]", "result": "−0.07", "unit": "mEq/L"},
      {"measurement": "Urinary potassium, Δ Day 1 vs baseline (Day −1)", "setting": "healthy male volunteers [5]; [11]", "result": "+5.2 mEq/24 h"},
      {"measurement": "Urinary potassium, Δ Day 7 vs baseline (Day −1)", "setting": "healthy male volunteers [5]; [11]", "result": "+6.4 mEq/24 h"},
      {"measurement": "Urinary potassium, Δ Day 14 vs Day 7", "setting": "healthy male volunteers [5]; [11]", "result": "+3.7 mEq/24 h"},
      {"measurement": "Urinary sodium, Δ Day 1 vs baseline (Day −1)", "setting": "healthy male volunteers [5]; [11]", "result": "+53.8‡ mEq/24 h"},
      {"measurement": "Urinary sodium, Δ Day 7 vs baseline (Day −1)", "setting": "healthy male volunteers [5]; [11]", "result": "+16.2 mEq/24 h"},
      {"measurement": "Urinary sodium, Δ Day 14 vs Day 7", "setting": "healthy male volunteers [5]; [11]", "result": "−24.0", "unit": "mEq/24 h"},
      {"measurement": "effect on plasma aldosterone concentration", "setting": "healthy male volunteers [5]; eplerenone 100 mg, Day 1", "result": "had no effect"},
      {"measurement": "increase in 24 hour urinary aldosterone", "setting": "healthy male volunteers [5]; eplerenone 100 mg, Day 1", "result": 34, "unit": "%"},
      {"measurement": "increase in 24 h urinary aldosterone levels", "setting": "healthy male volunteers [5]; eplerenone 100 mg, Day 7", "result": 118, "unit": "%"},
      {"measurement": "increase in PRA from baseline", "setting": "healthy male volunteers [5]; eplerenone 100 mg, Day 7", "result": 92, "unit": "%"},
      {"measurement": "increase in plasma aldosterone", "setting": "healthy male volunteers [5]; eplerenone 100 mg, Day 7", "result": 46, "unit": "%"},
      {"measurement": "increase in 24 h urinary aldosterone levels", "setting": "healthy male volunteers [5]; eplerenone 100 mg, Day 14", "result": 161, "unit": "%"},
      {"measurement": "increase in PRA", "setting": "healthy male volunteers [5]; eplerenone 100 mg, Day 14", "result": 130, "unit": "%"},
      {"measurement": "increase in plasma aldosterone", "setting": "healthy male volunteers [5]; eplerenone 100 mg, Day 14", "result": 63, "unit": "%"}
    ]},
    {"molecule": "N#Cc1ccc([C@H]2CCCc3cncn32)cc1", "note": "[FAD286A, reference compound]", "values": [
      {"measurement": "selectivity factor by exposure, aldosterone synthase over 11β-hydroxylase", "setting": "[6]", "result": "[…]"},
      {"measurement": "IC50", "setting": "human CYP11B2; recombinant hamster fibroblasts expressing human CYP11B1 and CYP11B2, read-out: IC50, inhibition of aldosterone synthesis", "result": "[…]"},
      {"measurement": "selectivity factor, inhibition of aldosterone vs cortisol synthesis", "setting": "human CYP11B2; recombinant hamster fibroblasts", "result": "[…]"},
      {"measurement": "oral bioavailability", "setting": "[7]; 1 mg/kg oral dose", "result": 33, "unit": "%"},
      {"measurement": "half-life", "setting": "[7]", "result": "54 to 72", "unit": "min"},
      {"measurement": "EC50", "setting": "[8]", "result": 136, "unit": "nM"}
    ]},
    {"molecule": "CCOC(=O)[C@H](CCc1ccccc1)N[C@@H](C)C(=O)N1CCC[C@H]1C(=O)O", "note": "[enalapril, reference compound]", "values": [
      {"measurement": "prolongation of median survival by pre-treatment", "setting": "[9]", "result": "approximately 4 months"}
    ]}
  ]
}
